Activity calls are given as the source filed them.
Columns and labels:
Type in all cases: functional, cell-based
Settings in all cases: time 48.0 hrs
[1] = test system: HaCaT; experiment: Effect on TNF-alpha/IFN-gamma-induced RANTES secretion in human HaCaT cells at 1 uM preincubated for 24 hrs followed by stimulation and measured after […] by ELISA analysis
[2] = test system: HaCaT; experiment: […] of TNF-alpha/IFN-gamma induced MCP-1 expression in human HaCaT cells at 20 uM preincubated for 24 hrs followed by stimulation and measured after […] by ELISA analysis
[3] = test system: HaCaT; experiment: Effect on TNF-alpha/IFN-gamma induced- MCP-1 secretion in human HaCaT cells at 1 uM preincubated for 24 hrs followed by stimulation and measured after […] by ELISA analysis
[4] = test system: HaCaT; experiment: Downregulation of TNF-alpha/IFN-gamma induced RANTES expression in human HaCaT cells at 20 uM preincubated for 24 hrs followed by stimulation and measured after […] by ELISA analysis
[5] = test system: HaCaT; experiment: Effect on TNF-alpha/IFN-gamma-induced RANTES secretion in human HaCaT cells at 20 uM preincubated for 24 hrs followed by stimulation and measured after […] by ELISA analysis

Measured: Activity

C[C@@H]1O[C@@H](OCCCCCCC(=O)CCCCCCC(CC(=O)O[C@@H]2[C@H](O)[C@@H](O[C@@H]3O[C@@H](C)[C@H](O[C@@H]4OC[C@@H](O)[C@H](O)[C@H]4O)[C@@H](O)[C@H]3O[C@@H]3OC[C@H](O)[C@H](O)[C@H]3OC3O[C@H](CO)[C@H](O)[C@H](O)[C@H]3O)[C@H](OC(=O)[C@]34CCC(C)(C)C[C@H]3C3=CC[C@@H]5[C@@]6(C)CC[C@H](O[C@@H]7O[C@H](C(=O)O)[C@H](O)[C@H](O)[C@H]7O)C(C)(C)[C@@H]6CC[C@@]5(C)[C@]3(C)C[C@H]4O)O[C@@H]2C)O[C@H]2O[C@H](C)[C@@H](O)[C@H](O)[C@@H]2O)[C@H](O)[C@H](O)[C@H]1O (stereo partly specified)
not listed: [5]
active: all other assays above

C[C@]12CCC(=O)C=C1CC[C@@H]1[C@@H]2[C@@H](O)C[C@@]2(C)[C@H]1CC[C@]2(O)C(=O)CO
active: [5] | [2] | [4]

C[C@@H]1O[C@@H](OCCCCCCC(=O)CCCCCCC(CC(=O)O[C@@H]2[C@H](O)[C@@H](O[C@@H]3O[C@@H](C)[C@H](O[C@@H]4OC[C@@H](O)[C@H](O)[C@H]4O)[C@@H](O)[C@H]3O[C@@H]3OC[C@H](O)[C@H](O)[C@H]3OC3O[C@H](CO)[C@H](O)[C@H](O)[C@H]3O)[C@H](OC(=O)[C@]34CCC(C)(C)C[C@H]3C3=CC[C@@H]5[C@@]6(C)CC[C@H](O[C@@H]7O[C@H](C(=O)O)[C@@H](O)[C@H](O)[C@H]7O)C(C)(C)[C@@H]6CC[C@@]5(C)[C@]3(C)C[C@H]4O)O[C@@H]2C)O[C@H]2O[C@H](C)[C@@H](O)[C@H](O)[C@@H]2O)[C@H](O)[C@H](O)[C@H]1O (stereo partly specified)
not listed: [5]
active: all other assays above

From ChEMBL document CHEMBL5214893, “Saponins from Saffron Corms Inhibit the Gene Expression and Secretion of Pro-Inflammatory Cytokines” (J Nat Prod, 2021)
